Data from ChEMBL document CHEMBL1201862, “PubChem BioAssay data set” (2004).
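1) Cells in 96-well plates. 2) Compound, 48 h, 5 concentrations. 3) Linear interpolation between surrounding doses. 4) Unreached endpoint = highest concentration. GI50 marks 50% less growth.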 Activity calls are given as the source filed them. No stated cut-off is given here; in the data, active = GI50 up to about 1.1 µM and inactive = higher.

What was measured:
Experiment in all cases: NCI-60 cell line screen, 48 h
[1] = system: CAKI-1
[2] = system: CCRF-CEM
[3] = system: HCC 2998
[4] = system: HCT-116
[5] = system: K562
[6] = system: KM12
[7] = system: MDA-MB-231
[8] = system: MDA-MB-435
[9] = system: MDA-N
[10] = system: Malme-3M
[11] = system: NCI-H23
[12] = system: NCI-H522
[13] = system: SF-539
[14] = system: SK-OV-3
[15] = system: SN12C
[16] = system: SNB-75
[17] = system: T47D
[18] = system: UACC-257
[19] = system: UACC-62
[20] = system: Hs-578T

Measured: GI50

CC(C)Sc1nncc(/C(N)=N/O)n1
inactive: [1] > 100 µM | [2] > 100 µM | [3] > 100 µM | [4] > 100 µM | [5] > 100 µM | [6] 88.5 µM | [7] > 100 µM | [8] > 100 µM | [9] > 100 µM | [10] > 100 µM | [11] > 100 µM | [12] > 100 µM | [13] > 100 µM | [14] > 100 µM | [15] > 100 µM | [16] > 100 µM | [17] > 100 µM | [18] > 100 µM | [19] > 100 µM

c1ccc(C2(c3cc4ccccc4[nH]3)OCCO2)nc1
inactive: [1] > 100 µM | [2] > 100 µM | [3] > 100 µM | [4] > 100 µM | [20] > 100 µM | [6] > 100 µM | [7] > 100 µM | [8] > 100 µM | [10] > 100 µM | [11] > 100 µM | [13] > 100 µM | [14] > 100 µM | [16] > 100 µM | [17] > 100 µM | [18] > 100 µM | [19] > 100 µM

COC(=O)C(C)(C)/N=C/N(C)C
inactive: [1] > 100 µM | [2] 72.6 µM | [3] > 100 µM | [4] > 100 µM | [5] > 100 µM | [6] > 100 µM | [10] > 100 µM | [11] > 100 µM | [12] > 100 µM | [13] > 100 µM | [14] > 100 µM | [15] > 100 µM | [16] > 100 µM | [18] > 100 µM | [19] > 100 µM

CC(=O)Nc1ccc(NNc2cc(=O)n(C)c(=O)[nH]2)cc1
inactive: [2] > 10 µM | [3] 11.4 µM | [4] 4.33 µM | [20] 25.6 µM | [5] 33.3 µM | [6] 12 µM | [7] 12.1 µM | [8] 10.3 µM | [9] 11 µM | [10] 12.4 µM | [11] 14.7 µM | [13] 9.73 µM | [15] 10.1 µM | [18] 13.5 µM

N#CCCC[Si]12OCCN(CCO1)CCO2
inactive: [1] > 100 µM | [2] > 100 µM | [3] > 100 µM | [4] > 100 µM | [5] > 100 µM | [6] > 100 µM | [10] > 100 µM | [11] > 100 µM | [12] > 100 µM | [13] > 100 µM | [14] > 100 µM | [15] > 100 µM | [16] > 100 µM | [18] > 100 µM | [19] > 100 µM

Clc1ccccc1C(n1cc(Br)cn1)n1cc(Br)cn1
inactive: [1] 19 µM | [2] 20.9 µM | [3] > 10 µM | [4] 15 µM | [5] 19.1 µM | [6] 15.3 µM | [10] 17.2 µM | [11] 23.1 µM | [12] 71.9 µM | [13] > 10 µM | [14] > 10 µM | [15] 16.3 µM | [16] 5.81 µM | [18] 14.7 µM | [19] > 10 µM

Cc1cccnc1N/C=C1\C(=O)NC(=O)N(C)C1=O
inactive: [1] > 100 µM | [4] > 100 µM | [20] > 100 µM | [6] > 100 µM | [8] > 100 µM | [9] > 100 µM | [10] 13 µM | [11] 49.7 µM | [12] 1.69 µM | [13] > 100 µM | [14] > 100 µM | [15] > 100 µM | [16] 35.9 µM | [17] 55.7 µM | [18] > 100 µM | [19] > 100 µM

OCC1C(O)C(O)[C@@H]2SCCN12 (some centres undefined)
inactive: [1] > 100 µM | [2] > 100 µM | [3] > 100 µM | [4] > 100 µM | [20] > 100 µM | [5] > 100 µM | [6] > 100 µM | [7] > 100 µM | [8] > 100 µM | [10] > 100 µM | [11] > 100 µM | [12] > 100 µM | [14] > 100 µM | [16] > 100 µM | [17] > 100 µM | [18] > 100 µM | [19] > 100 µM

O=C(NN1C(=O)c2ccccc2C1=O)c1ccccc1Nc1ccccc1C(=O)NN1C(=O)c2ccccc2C1=O
inactive: [1] > 100 µM | [2] > 100 µM | [3] > 100 µM | [4] > 100 µM | [5] > 100 µM | [6] > 100 µM | [7] > 100 µM | [8] > 100 µM | [9] > 100 µM | [10] > 100 µM | [11] > 100 µM | [12] > 100 µM | [13] > 100 µM | [15] > 100 µM | [16] > 100 µM | [18] > 100 µM | [19] > 100 µM
